Data on 15 compounds can be found in patent US20070054916A1, “Aryl nitrogen-containing bicyclic compounds and methods of use” (Amgen Inc., priority 2004, published 2007).

Structures are written as SMILES. Where only a bound is given, the exact number is not on record here.

The assay has as its system production of TNF by monocytes activated with bacterial lipopolysaccharide (LPS). Kind of assay: Lipopolysaccharide-activated monocyte TNF production assay. Type of assay: cell-based. The note with it: Homo sapiens, read-out: IC50 values in the monocyte assay (LPS induced TNF release). The method in brief: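 Adherent human PBMC-derived monocytes (~70%) in DMEM/2% FCS were pre-incubated 60 min with nine two-fold compound dilutions, then stimulated with E. coli K532 LPS (added as 30 ng/ml solution) for 4 h at 37 °C. Supernatant TNF-α was measured by sandwich ELISA. IC50 was taken from a polynomial fit of TNF versus compound concentration.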

As for `CNc1ncc2cc(-c3cccc(C(=O)Nc4cccc(C(F)(F)F)c4)c3)ccc2n1` [Example 53, 3-(2-(methylamino)-6-quinazolinyl)-N-(3-(trifluoromethyl)phenyl)benzamide], the IC50 (usually the concentration that gives 50% inhibition) was at most 25 µM.

Turning to `CNc1ncc2cc(-c3cc(C(=O)Nc4cc(C(C)(C)C)ccc4OC)ccc3C)cnc2n1` [Example 186], the IC50 was at most 25 µM.

Take `Cc1ccc(C(=O)Nc2cc(C(F)(F)F)ccc2C(F)(F)F)cc1-c1ccc2nc(N)ncc2c1` [Example 77, 3-(2-amino-6-quinazolinyl)-N-(2,5-bis(trifluoromethyl)phenyl)-4-methylbenzamide]: the IC50 is at most 25 µM.

Regarding `Cc1ccc(C(=O)Nc2cccc(C(F)(F)F)c2F)cc1-c1ccc2nc(N)ncc2c1` [Example 19, 3-(2-amino-6-quinazolinyl)-N-(2-fluoro-3-(trifluoromethyl)phenyl)-4-methylbenzamide], the IC50 is at most 25 µM.

Take `Cc1ccc(C(=O)Nc2cccc(C(F)(F)F)c2C)cc1-c1ccc2nc(NCCCN3CCCC3=O)ncc2c1` [Example 34, 4-methyl-N-(2-methyl-3-(trifluoromethyl)phenyl)-3-(2-((3-(2-oxo-1-pyrrolidinyl)propyl)amino)-6-quinazolinyl) benzamide]: the IC50 was at most 25 µM.

For `Cc1ccc(C(=O)Nc2cc(C(=O)N3CCN(C)CC3)cc(C(F)(F)F)c2)cc1-c1ccc2nc(N)ncc2c1` [Example 158, 3-(2-amino-6-quinazolinyl)-4-methyl-N-(3-((4-methyl-1-piperazinyl)carbonyl)-5-(trifluoromethyl)phenyl)benzamide], the concentration for half-maximal inhibition (IC50) is at most 25 µM.

For the compound `Cc1ccc(C(=O)NC2CC2)cc1-c1ccc2nc(N)ncc2c1` [Example 40, 3-(2-amino-6-quinazolinyl)-N-cyclopropyl-4-methylbenzamide], the IC50 is at most 25 µM.

As for `CN1CCN(c2ccc(C(F)(F)F)cc2C(=O)Nc2cc(-c3ccc4nc(N)ncc4c3)ccc2F)CC1` [Example 434, N-(5-(2-aminoquinazolin-6-yl)-2-fluorophenyl)-2-(4-methylpiperazin-1-yl)-5-(trifluoromethyl)benzamide], the IC50 was at most 25 µM.

In the case of `COc1cc(OC)cc(C(=O)Nc2cc(-c3ccc4nc(N)ncc4c3)ccc2F)c1` [Example 490, N-(5-(2-amino-6-quinazolinyl)-2-fluorophenyl)-3,5-bis(methyloxy)benzamide], the IC50 is at most 25 µM.

Turning to `Nc1ncc2cc(-c3cc(C(=O)Nc4cccc(C(F)(F)F)c4F)ccc3Cl)ccc2n1` [Example 140, 3-(2-amino-6-quinazolinyl)-4-chloro-N-(2-fluoro-3-(trifluoromethyl)phenyl)benzamide], the IC50 was at most 25 µM.

For `CN(C)[C@@H]1CCN(c2ccc(C(F)(F)F)cc2NC(=O)c2cc(-c3ccc4nc(N)ncc4c3)ccc2F)C1` [Example 422, 5-(2-amino-6-quinazolinyl)-N-(2-((3R)-3-(dimethylamino)-1-pyrrolidinyl)-5-(trifluoromethyl)phenyl)-2-fluorobenzamide], the half-maximal inhibitory concentration (IC50) was at most 25 µM.

For the compound `Nc1ncc2cc(-c3ccc(F)c(NC(=O)c4cc(C(F)(F)F)ccc4F)c3)ccc2n1` [Example 433, N-(5-(2-aminoquinazolin-6-yl)-2-fluorophenyl)-2-fluoro-5-(trifluoromethyl)benzamide], the IC50 is at most 25 µM.

On to `Cc1ccc(C(=O)Nc2cccc3ncccc23)cc1-c1ccc2nc(N)ncc2c1` [Example 281, 3-(2-amino-6-quinazolinyl)-4-methyl-N-(5-quinolinyl)benzamide], for which the IC50 is at most 25 µM.

For `CCN1CCC(CNc2ncc3cc(-c4cc(C(=O)Nc5cccc(C(F)(F)F)c5C)ccc4C)ccc3n2)CC1` [Example 35, 3-(2-(((1-ethyl-4-piperidinyl)methyl)amino)-6-quinazolinyl)-4-methyl-N-(2-methyl-3-(trifluoromethyl)phenyl)benzamide], the IC50 was at most 25 µM.

As to `CNc1ncc2cc(-c3cccc(NC(=O)c4cccc(C(F)(F)F)c4)c3C)cnc2n1` [Example 198, N-2-methyl-3-(2-(methylamino)pyrido[2,3-d]pyrimidin-6-yl)-N-(3-(trifluoromethyl)phenyl)benzamide], the IC50 was at most 25 µM.
